Measured values taken from patent US9783539B2, “Indoloquinolone compounds as anaplastic lymphoma kinase (ALK) inhibitors” (Jiangsu Ascentage Biomed Development Inc., priority 2014, dated 2017).
Where “and” joins values, the source holds several entries; their conditions need not be identical. Identical values can stand only once. Like-named read-outs stand apart in the source and are kept apart here.

What was measured:
[1] = tested on: Kappas-299 cells containing NPM-ALK fusion protein; assay: 4-day cell viability assay (CellTiter-Glo), Kappas-299; type: cell-based; details: NPM-ALK, 96 h, inhibition of cell growth, 4 days, multiple values from independent experiments
Method: (§1) The effect of compounds on cell viability was determined in a 4-day proliferation assay. Cells were maintained in RPMI1640 culture medium with 10% FBS at 37° C. and an atmosphere of 5% CO2. […] Cells were seeded in 96-well plates at a density of 3,000-10,000 cells/well in 75 μl of culture medium. Compounds were serially diluted in the appropriate medium, and 75 μl of the diluted compounds were added to the appropriate wells of the cell plate. After the addition of compounds, the cells were incubated at 37° C. in an atmosphere of 5% CO2 for 4 days. Cell viability was determined using the CellTiter-Glo® Luminescent Cell Viability Assay Kit (Promega, Madison, Wis.) (for KARPAS-299 cells) or WST (2-(2-methoxy-4-nitrophenyl)-3-(4-nitrophenyl)-5-(2,4-disulfophenyl)-2H-tetrazolium, monosodium salt) Cell Counting-8 Kit (Dojindo Molecular Technologies, Inc., Rockville, Md.) (for H3122 cells) according to the manufacturers' instructions.
For CellTiter-Glo assay, 100 μl of CellTiter-Glo® Reagent was added to each well, and then the plates were incubated at room temperature for 10-20 minutes. The luminescent signal was measured using a Tecan Infinite M1000 multimode microplate reader (Tecan, Morrisville, N.C.). The readings were normalized to the DMSO-treated cells and the IC50 was calculated by nonlinear regression analysis using the GraphPad Prism 5 software.
Cells were treated for four days and cell growth was determined using a CellTiter-Glo assay.

[2] = biological target: wild-type human ALK protein (cytoplasmic domain, amino acid 1058-1620, GST-fusion) (Homo sapiens, UniProt Q9UM73); assay: biochemical; details: 100 μM ATP
Chain of wild-type human ALK protein (cytoplasmic domain, amino acid 1058-1620, GST-fusion) (Q9UM73 1058-1620): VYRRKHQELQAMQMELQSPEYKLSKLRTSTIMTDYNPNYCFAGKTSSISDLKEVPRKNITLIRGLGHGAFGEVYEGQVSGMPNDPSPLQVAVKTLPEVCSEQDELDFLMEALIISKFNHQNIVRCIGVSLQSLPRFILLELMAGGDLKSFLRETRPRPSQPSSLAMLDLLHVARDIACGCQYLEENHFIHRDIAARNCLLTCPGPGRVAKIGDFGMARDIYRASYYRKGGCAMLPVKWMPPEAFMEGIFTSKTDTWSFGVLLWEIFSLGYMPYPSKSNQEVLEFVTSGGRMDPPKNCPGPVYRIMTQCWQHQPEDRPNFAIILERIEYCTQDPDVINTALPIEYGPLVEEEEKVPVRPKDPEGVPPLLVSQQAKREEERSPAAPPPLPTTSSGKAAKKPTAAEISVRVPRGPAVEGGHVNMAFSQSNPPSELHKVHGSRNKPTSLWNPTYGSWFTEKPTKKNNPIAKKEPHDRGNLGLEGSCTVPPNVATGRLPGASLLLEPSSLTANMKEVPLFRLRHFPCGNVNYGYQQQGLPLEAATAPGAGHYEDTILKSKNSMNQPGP
Method: (§2) Kinase activities of all enzymes were assessed using a Lance TR-FRET assay kit from Perkin Elmer Life Sciences (Waltham, Mass.). 2.5 μL of compound solution and 5 μL of protein solution were added into a black low volume 384 well microtiter plate which was incubated for 15 minutes with gentle shaking at room temperature, followed by adding 2.5 μL of fluorescently labeled peptide substrate (Ulight-[sequence]) and ATP mixture solution. The kinase reaction was performed in 50 mM HEPES (pH 7.5) with 1 mM EGTA, 1 mM MgCl2, and 2 mM DTT, 0.01% Tween-20 added right before the assay. […] The reaction was allowed to perform for 90 minutes in dark with gentle shaking at room temperature after which 10 μL of 20 mM EDTA and 2 nM Eu-W1024 anti-phosphotyrosine antibody (PT66) mixture solution in the detection buffer from the manufacturer was added to terminate the reaction and detect the phosphorylation of the peptide substrate. Final mixture was incubated in the dark for 1 hour before the plate was read on a Tecan Infinite M-1000 multi-mode plate reader (Tecan, Durham N.C.) with an excitation wavelength of 320 nm.

ALK mutant (G1269A) = ALK mutant (G1269A) (Homo sapiens, UniProt Q9UM73, G1269A); assay: biochemical; details: 100 μM ATP
Chain of ALK mutant (G1269A) (Q9UM73 19-1620 G1269A): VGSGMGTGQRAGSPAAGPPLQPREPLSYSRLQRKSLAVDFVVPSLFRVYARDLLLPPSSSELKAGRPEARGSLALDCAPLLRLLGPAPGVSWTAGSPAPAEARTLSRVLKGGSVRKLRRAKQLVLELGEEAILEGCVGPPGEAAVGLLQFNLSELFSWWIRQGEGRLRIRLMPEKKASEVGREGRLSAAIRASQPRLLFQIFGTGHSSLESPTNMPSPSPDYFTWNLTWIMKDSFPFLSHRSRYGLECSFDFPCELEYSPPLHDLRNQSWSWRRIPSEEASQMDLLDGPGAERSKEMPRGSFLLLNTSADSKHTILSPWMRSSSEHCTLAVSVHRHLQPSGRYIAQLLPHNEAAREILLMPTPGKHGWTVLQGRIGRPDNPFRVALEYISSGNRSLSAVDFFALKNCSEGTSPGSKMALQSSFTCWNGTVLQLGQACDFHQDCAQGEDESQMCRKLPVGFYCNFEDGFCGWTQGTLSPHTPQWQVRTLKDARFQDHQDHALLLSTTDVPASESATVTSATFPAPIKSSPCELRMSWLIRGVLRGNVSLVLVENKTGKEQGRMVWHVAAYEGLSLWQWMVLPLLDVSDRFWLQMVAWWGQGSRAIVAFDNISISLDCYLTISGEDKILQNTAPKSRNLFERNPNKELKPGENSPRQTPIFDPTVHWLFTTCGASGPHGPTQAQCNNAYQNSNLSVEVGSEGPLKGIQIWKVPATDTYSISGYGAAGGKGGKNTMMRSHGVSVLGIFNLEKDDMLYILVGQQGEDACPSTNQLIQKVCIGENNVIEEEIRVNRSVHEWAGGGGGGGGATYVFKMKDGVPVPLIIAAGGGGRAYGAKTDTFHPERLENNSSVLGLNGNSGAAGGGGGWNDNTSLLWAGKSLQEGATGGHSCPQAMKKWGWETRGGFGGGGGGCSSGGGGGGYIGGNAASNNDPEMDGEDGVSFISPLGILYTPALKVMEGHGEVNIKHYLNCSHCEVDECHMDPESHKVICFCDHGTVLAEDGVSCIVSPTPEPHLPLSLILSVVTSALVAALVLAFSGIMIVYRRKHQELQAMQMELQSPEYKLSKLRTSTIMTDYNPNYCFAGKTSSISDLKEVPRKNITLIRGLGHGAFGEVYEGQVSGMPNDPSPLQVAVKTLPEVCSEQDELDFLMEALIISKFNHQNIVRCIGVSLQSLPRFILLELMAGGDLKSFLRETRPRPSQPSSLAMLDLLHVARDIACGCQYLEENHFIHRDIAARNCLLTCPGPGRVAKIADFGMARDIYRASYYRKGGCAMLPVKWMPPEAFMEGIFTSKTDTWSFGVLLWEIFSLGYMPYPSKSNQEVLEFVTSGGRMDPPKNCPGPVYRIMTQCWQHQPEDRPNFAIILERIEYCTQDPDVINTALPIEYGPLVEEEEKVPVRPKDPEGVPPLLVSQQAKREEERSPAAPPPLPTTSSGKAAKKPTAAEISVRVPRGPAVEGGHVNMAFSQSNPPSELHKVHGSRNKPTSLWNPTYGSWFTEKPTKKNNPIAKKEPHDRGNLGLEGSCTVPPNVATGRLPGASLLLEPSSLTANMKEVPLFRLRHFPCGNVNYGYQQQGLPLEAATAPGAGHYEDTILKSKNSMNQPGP
Method: as §2

ALK mutant (S1206Y) = ALK mutant (S1206Y) (Homo sapiens, UniProt Q9UM73, S1206Y); assay: biochemical
Chain of ALK mutant (S1206Y) (Q9UM73 19-1620 S1206Y): as the sequence (Q9UM73 19-1620 G1269A) above, with S1188Y, A1251G counted along it
Method: as §2

[3] = tested on: H3122 non-small cell lung cancer cell line harboring the EML4-ALK fusion gene; assay: 4-day cell viability assay (WST), H3122; type: cell-based; details: Homo sapiens, NCI-H3122, 96 h, 4 days, read-out: IC50 (nM) in Inhibition of Tumor Cell Growth H3122 Cell line
Method: as §1
For WST assay, WST-8 reagent was added to each well at a final concentration of 10% (v/v), and then the plates were incubated at 37° C. for 1-2 hours for color development. The absorbance was measured at 450 nm using a SPECTRAmax PLUS plate reader (Molecular Devices, Sunnyvale, Calif.). The readings were normalized to the DMSO-treated cells and the half maximal inhibitory concentration (IC50) was calculated by nonlinear regression analysis using the GraphPad Prism 5 software (GraphPad Software, La Jolla, Calif.).
Cells were treated for four days and cell growth was determined using a WST assay.

[4] = Pharmacokinetic parameters in SD rats, IV and PO; design: AUC(0-t): concentration or dose not given beside the values; details: Sprague-Dawley (SD), rat, in vivo; for bioavailability: po, read-out: Oral Bioavailability (F)
Description: The pharmacokinetic (PK) parameters in SD rats for selected compounds with intravenous (IV) and oral (PO) administrations are provided in the following table (Table 5).

[5] = IC50 ALK Wild-type, Table 2, wild-type ALK
[6] = intravenous, read-out: AUC0-t IV
[7] = intravenous, read-out: t1/2 IV (converted)
[8] = oral, read-out: t1/2 PO (converted)

## C#Cc1cc2c(=O)c3c4ccc(C#N)cc4[nH]c3n(C(C)C)c2cc1N1CCN(C)CC1 [ALK-71, 2-Ethynyl-5-isopropyl-3-(4-methylpiperazin-1-yl)-11-oxo-6,11-dihydro-5H-indolo[2,3-b]quinoline-8-carbonitrile]
[1]
  IC50: 31 nM
[2]; ALK IC50, wild-type ALK
  IC50: 0.31 nM
[2]; [5]
  IC50: 0.31 nM
ALK mutant (G1269A)
  IC50: 0.47 nM and 0.55 nM
ALK mutant (S1206Y)
  IC50: 1.3 nM

## C#Cc1cc2c(=O)c3c4ccc(C#N)cc4[nH]c3n(C3CCC3)c2cc1N1CCN(C)CC1 [ALK-72, 5-Cyclobutyl-2-ethynyl-3-(4-methylpiperazin-1-yl)-11-oxo-6,11-dihydro-5H-indolo[2,3-b]quinoline-8-carbonitrile]
[1]
  IC50: 52 nM
[2]; ALK IC50, wild-type ALK
  IC50: 0.67 nM
[2]; [5]
  IC50: 0.67 nM
ALK mutant (G1269A)
  IC50: 2.4 nM
ALK mutant (S1206Y)
  IC50: 2.8 nM

## CCOc1cc2c(=O)c3c4ccc(C#N)cc4[nH]c3n(C(C)C)c2c(F)c1N1CCC(N2CCOCC2)CC1 [ALK-76, 2-Ethoxy-4-fluoro-5-isopropyl-3-(4-morpholinopiperidin-1-yl)-11-oxo-6,11-dihydro-5H-indolo[2,3-b]quinoline-8-carbonitrile]
[1]
  IC50: 35 nM
[3]
  IC50: 85 ± 11 nM
[2]; ALK IC50, wild-type ALK
  IC50: 2.5 nM

## CCc1cc2c(=O)c3c4ccc(C#N)cc4[nH]c3n(C(C)C)c2cc1N1CCN(C2COC2)CC1 [ALK-77, 2-Ethyl-5-isopropyl-3-(4-(oxetan-3-yl)piperazin-1-yl)-11-oxo-6,11-dihydro-5H-indolo[2,3-b]quinoline-8-carbonitrile]
[1]
  IC50: 31 nM
[3]
  IC50: 25.9 nM
[2]; ALK IC50, wild-type ALK
  IC50: 1.1 nM

## CCc1cc2c(=O)c3c4ccc(C#N)cc4[nH]c3n(C(C)C)c2cc1N1CCC(N2CCOCC2)CC1 [ALK-78, 2-Ethyl-5-isopropyl-3-(4-morpholinopiperidin-1-yl)-11-oxo-6,11-dihydro-5H-indolo[2,3-b]quinoline-8-carbonitrile]
[1]
  IC50: 25 nM
[3]
  IC50: 13.1 nM
[2]; ALK IC50, wild-type ALK
  IC50: 0.7 nM

## CCc1cc2c(=O)c3c4ccc(C#N)cc4[nH]c3n(C(C)C)c2cc1N1CCC(N2CCN(C)CC2)CC1 [ALK-79, 2-Ethyl-5-isopropyl-3-(4-(4-methylpiperazin-1-yl)piperidin-1-yl)-11-oxo-6,11-dihydro-5H-indolo[2,3-b]quinoline-8-carbonitrile]
[1]
  IC50: 9.6 nM
[3]
  IC50: 2 ± 1 nM
[2]; ALK IC50, wild-type ALK
  IC50: 0.11 nM

## CCc1cc2c(=O)c3c4ccc(C#N)cc4[nH]c3n(C(C)C)c2cc1N1CCN(C(C)C)CC1 [ALK-80, 2-Ethyl-5-isopropyl-3-(4-isopropylpiperazin-1-yl)-11-oxo-6,11-dihydro-5H-indolo[2,3-b]quinoline-8-carbonitrile]
[1]
  IC50: 7.6 nM
[3]
  IC50: 3 ± 1 nM
[2]; ALK IC50, wild-type ALK
  IC50: 0.22 nM

## CCOc1cc2c(=O)c3c4ccc(C#N)cc4[nH]c3n(C(C)C)c2c(F)c1N1CCN(C)CC1 [ALK-83, 2-Ethoxy-4-fluoro-5-isopropyl-3-(4-methylpiperazin-1-yl)-11-oxo-6,11-dihydro-5H-indolo[2,3-b]quinoline-8-carbonitrile]
[1]
  IC50: 21 nM
[3]
  IC50: 8.8 nM
[4]; [6]
  AUC(0-t): 1100 ng·h/mL
[4]; intravenous, read-out: Cmax IV
  Cmax: 346 ng/mL
[4]; intravenous, read-out: Tmax IV
  Tmax: 0.083 h
[4]; [7]
  half-life: 5.24 h
[4]; oral, read-out: AUC0-t PO
  AUC(0-t): 4430 ng·h/mL
[4]; oral, read-out: Cmax PO
  Cmax: 548 ng/mL
[4]; oral, read-out: Tmax PO
  Tmax: 4 h
[4]; [8]
  half-life: 4.1 h
[4]
  bioavailability: 78.8%
[2]; ALK IC50, wild-type ALK
  IC50: 2 nM

## CC(C)Oc1cc2c(=O)c3c4ccc(C#N)cc4[nH]c3n(C(C)C)c2c(F)c1N1CCC(N2CCOCC2)CC1 [ALK-85, 4-Fluoro-2-isopropoxy-5-isopropyl-3-(4-morpholinopiperidin-1-yl)-11-oxo-6,11-dihydro-5H-indolo[2,3-b]quinoline-8-carbonitrile]
[1]
  IC50: 66 nM
[3]
  IC50: 148 ± 26 nM
[2]; ALK IC50, wild-type ALK
  IC50: 22.9 nM

## CC(C)Oc1cc2c(=O)c3c4ccc(C#N)cc4[nH]c3n(C(C)C)c2c(F)c1N1CCN(C)CC1 [ALK-86, 4-Fluoro-2-isopropoxy-5-isopropyl-3-(4-methylpiperazin-1-yl)-11-oxo-6,11-dihydro-5H-indolo[2,3-b]quinoline-8-carbonitrile]
[1]
  IC50: 31 nM
[3]
  IC50: 161 nM
[4]; [6]
  AUC(0-t): 1080 ng·h/mL
[4]; intravenous, read-out: Cmax IV
  Cmax: 261 ng/mL
[4]; intravenous, read-out: Tmax IV
  Tmax: 0.083 h
[4]; [7]
  half-life: 5.23 h
[4]; oral, read-out: AUC0-t PO
  AUC(0-t): 2440 ng·h/mL
[4]; oral, read-out: Cmax PO
  Cmax: 258 ng/mL
[4]; oral, read-out: Tmax PO
  Tmax: 4 h
[4]; [8]
  half-life: 5.11 h
[4]
  bioavailability: 44.6%
[2]; ALK IC50, wild-type ALK
  IC50: 5.8 nM

## CCc1cc2c(=O)c3c4ccc(C#N)cc4[nH]c3n(C(C)C)c2cc1C1CCN(C)CC1 [CJ-2217, 2-Ethyl-5-isopropyl-3-(1-methylpiperidin-4-yl)-11-oxo-6,11-dihydro-5H-indolo[2,3-b]quinoline-8-carbonitrile]
[1]
  IC50: 14 nM
[3]
  IC50: 17 ± 8 nM
[2]; ALK IC50, wild-type ALK
  IC50: 0.52 nM

## CCc1cc2c(=O)c3c4ccc(C#N)cc4[nH]c3n(C(C)C)c2cc1C1CCN(C2COC2)CC1 [CJ-2238, 2-Ethyl-5-isopropyl-3-(1-(oxetan-3-yl)piperidin-4-yl)-11-oxo-6,11-dihydro-5H-indolo[2,3-b]quinoline-8-carbonitrile]
[1]
  IC50: 231 nM
[3]
  IC50: 1040 nM
[2]; ALK IC50, wild-type ALK
  IC50: 2.6 nM

## CCc1cc2c(=O)c3c4ccc(C#N)cc4[nH]c3n(C(C)C)c2cc1C1CCN(C(C)C)CC1 [CJ-2239, 2-Ethyl-5-isopropyl-3-(1-isopropylpiperidin-4-yl)-11-oxo-6,11-dihydro-5H-indolo[2,3-b]quinoline-8-carbonitrile]
[1]
  IC50: 16 nM
[3]
  IC50: 36 ± 13 nM
[2]; ALK IC50, wild-type ALK
  IC50: 0.77 nM

## CCc1cc2c(=O)c3c4ccc(C#N)cc4[nH]c3n(C(C)C)c2cc1C1CCN(C2CCOCC2)CC1 [CJ-2240, 2-Ethyl-5-isopropyl-11-oxo-3-(1-(tetrahydro-2H-pyran-4-yl)piperidin-4-yl)-6,11-dihydro-5H-indolo[2,3-b]quinoline-8-carbonitrile]
[1]
  IC50: 35 nM
[3]
  IC50: 33 ± 12 nM
[2]; ALK IC50, wild-type ALK
  IC50: 0.78 nM

## CCc1cc2c(=O)c3c4ccc(C#N)cc4[nH]c3n(C(C)C)c2cc1C1CCN(CCO)CC1 [CJ-2241, 2-Ethyl-3-(1-(2-hydroxyethyl)piperidin-4-yl)-5-isopropyl-11-oxo-6,11-dihydro-5H-indolo[2,3-b]quinoline-8-carbonitrile]
[1]
  IC50: 292 nM
[3]
  IC50: 154 nM
[2]; ALK IC50, wild-type ALK
  IC50: 0.32 nM
